This note sets out measurements from patent US10857155B2, “Compounds targeting proteins, compositions, methods, and uses thereof” (BioTheryX, Inc., priority 2017, dated 2020).

Assay type in all cases: cell-based
The subject of assay [1] is IL-1β. In words: IL-1 beta in LPS-induced PBMCs / CD14+ monocytes, Meso Scale assay. The protocol: FIG. 2 represents the activity against IL-1-beta in CD14 monocytes, plated in 96 well plates and pretreated with Compounds 1, 2, or 3, or pomalidomide, for 1 h and then induced with 100 ng/mL LPS for 18-24 h. Cytokines were measured according to MesoScale protocol. Negative control wells were treated with DMSO. Compound activity was measured as a percentage of LPS-induced activity.
(§1) Either frozen primary blood mononuclear cells (PBMCs) or frozen CD14+ mobilized peripheral blood monocytes were purchased from AllCells (PB003F, Normal Peripheral Blood MNC (Alameda, Calif.)). Cells were quick thawed, washed 1-time with RPMI-1640 (10% FBS/1% Pen-Strep) and plated in 96 well plates at 200,000 cells per well. Cells were pretreated with DMSO only, pomalidomide or the indicated compounds for 1 h and then induced with 100 ng/mL lipopolysaccharide (LPS) for 18-24 h. The supernatant was analyzed for IL-1 beta, IL-6, and TNF-alpha, using Meso Scale assay according to manufacturer's protocol. The negative control wells were treated with DMSO.
(§2) Compound activity is measured as fold difference from the DMSO control. Compounds 1, 2, and 3 each reduced expression of IL-1-b in LPS-stimulated PBMCs by over 80% at 1 uM, relative to a just under 80% reduction with pomalidomide at 10 μM (FIG. 2).

Assay [2] concerns IL-6. The assay can be described thus: IL-6 in LPS-induced PBMCs / CD14+ monocytes, Meso Scale assay. The protocol: FIG. 3 represents the activity against IL-6 in CD14, monocytes, plated in 96 well plates and pretreated with Compounds 1, 2, or 3, or pomalidomide, for 1 h and then induced with 100 ng/mL LPS for 18-24 h. Cytokines were measured according to MesoScale protocol. Negative control wells were treated with DMSO. Cells were treated with compound (at the indicated concentrations) or 10 μM pomalidomide. Compound activity was measured as a percentage of LPS-induced activity.
as §1, §2

Assay [3] concerns TNF-α. In words: TNF-alpha in LPS-induced PBMCs / CD14+ monocytes, Meso Scale assay. The protocol:
FIG. 4 represents the activity against TNF-alpha in CD14, monocytes, plated in 96 well plates and pretreated with Compounds 1, 2, or 3, or pomalidomide, for 1 h and then induced with 100 ng/mL LPS for 18-24 h. Cytokines were measured according to MesoScale protocol. The negative control wells were treated with DMSO. Cells were treated with compound (at the indicated concentrations) or 10 μM pomalidomide. Compound activity was measured as a percentage of LPS-induced activity.
as §1, §2

The subject of assay [4] is IL-2. In words: IL-2 in PBMCs on anti-human CD3 (OKT3) coated plates, Mesoscale analysis. The settings on record: PBMC, 24 h, relative to DMSO control, read-out: Fold Change IL-2. The protocol: For the IL-2 analysis, 96 well plates were precoated with 1 μg/mL anti-human CD3 antibody (OKT3, eBioscience Inc., San Diego, Calif.). After washing with PBS, compounds were added (50 μL/well) followed by PBMCs diluted at 3-4 million cells/mL (150 μL/well). Plates were incubated for 24 h and the supernatants collected for Mesoscale IL-2 analysis.
as §2

The subject of assay [5] is Molm-13 cells. The assay can be described thus: Cell viability assay (CellTiter-Glo), Molm-13 cells. The settings on record: for viability at 1 µM: MOLM-13, 1 μM; for viability at 10 µM: MOLM-13, 10 μM. The protocol: FIG. 5 represents antiproliferative activity in Molm-13 cells. The cells were incubated with Compound 1, 2, or 3 (at the indicated concentration), DMSO, or pomalidomide. Compound activity was measured based on the signal from remaining viable cells.
(§3) Molm-13 cells were cultivated in RPMI-1640 (10% FBS/1% pen-strep) and were plated in white walled 96-well plates at 20,000 cells/well. H1048 cells were cultured in DMEM:F12 media supplemented with 5% fetal bovine serum, insulin, transferrin, sodium selenite, hydrocortisone, estradiol, penicillin and streptomycin, and were plated in white walled 96-well plates at 20,000 cells/well.
(§4) Cells were treated with compound at the indicated concentration or DMSO (control) and the cultures were incubated for 3 days at 37° C. and 5% CO2. Following the incubation period, 100 μL of CellTiterGlow (CTG) reagent (CellTiter-Glo® Luminescent Cell Viability Assay, Promega (Madison, Wis.)) was added to each well. Following a 10 min incubation with shaking, luminescence was measured using a Victor Wallac Luminometer.

Assay [6] deals with H1048 cells. The assay can be described thus: Cell viability assay (CellTiter-Glo), H1048 cells. The settings on record: Homo sapiens, NCI-H1048, 72 h, 3 days; for viability at 1 µM: H1048, 1 μM; for viability at 10 µM: H1048, 10 μM. The protocol: as §3, §4
For assay [7], the target named is T1, GSPT1 (Homo sapiens, UniProt P15170).
T1 construct: Whole cell extract was prepared with RIPA buffer according to manufacturer's protocol; endogenous in cells; host or cells: Jurkat cells
In words: Western blot analysis of GSPT1 protein levels in Jurkat cells. The settings on record: DMSO = 100.00; for GSPT1 protein level (% of DMSO control) at 1 µM: 1 uM compound; for GSPT1 protein level (% of DMSO control) at 0.1 µM: 100 nM compound. The protocol: FIG. 1 represents the activity against CK1α, ikaros, and GPST1 in Jurkat cells, plated in 96 well plates. Cells were pretreated with compounds for 4 h and then lysed and protein levels measure via Western blots. The negative control wells were treated with DMSO. Cells were treated with the indicated compound at the indicated concentration. Compound activity is measured as a decrease in GSPT1 protein levels.
Western Blot Protocol: Cell lines were grown in RPMI 1640 supplemented with streptomycin, penicillin and 10% fetal bovine serum.
Jurkat cells were cultured at approximately 10^6 cells per mL, DMSO or the indicated compound was added to the cells and allowed to incubate for 6-8 h. Whole cell extract was prepared with RIPA buffer according to manufacturer's protocol (Pierce (Dallas, Tex.)). Briefly, ˜2×10^6 cells were washed once in PBS, the cell pellet was resuspended in RIPA buffer and allowed to incubate for 15 min on ice. Cell debris was removed by centrifugation and the cleared whole cell lysate was transferred to a new tube for further analysis.
For western blot analysis, whole cell extracts were separated on 4-12% SDS-polyacrylamide gels, transferred to nitrocellulose and probed with the indicated primary antibodies. Membranes were subsequently washed and probed with the appropriate horseradish peroxidase (HRP)-conjugated secondary antibody. Membranes were subsequently washed and probed with the appropriate IRDye secondary antibodies (LI-COR). The signal was detected using the Odyssey Imaging System (LI-COR).

T1 sequence (P15170 whole entry): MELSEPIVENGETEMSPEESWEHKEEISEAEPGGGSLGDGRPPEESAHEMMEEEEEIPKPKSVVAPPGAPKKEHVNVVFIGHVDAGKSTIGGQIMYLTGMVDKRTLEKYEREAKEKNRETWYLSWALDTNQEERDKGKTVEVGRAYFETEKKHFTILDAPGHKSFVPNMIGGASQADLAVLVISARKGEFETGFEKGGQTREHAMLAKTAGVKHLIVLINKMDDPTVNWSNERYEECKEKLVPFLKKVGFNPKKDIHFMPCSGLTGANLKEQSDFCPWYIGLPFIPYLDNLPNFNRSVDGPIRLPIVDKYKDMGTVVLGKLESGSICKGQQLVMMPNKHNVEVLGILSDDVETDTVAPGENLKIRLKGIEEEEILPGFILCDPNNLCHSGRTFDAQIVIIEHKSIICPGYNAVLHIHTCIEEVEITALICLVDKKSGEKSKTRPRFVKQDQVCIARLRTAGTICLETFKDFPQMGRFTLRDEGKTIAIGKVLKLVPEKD

In the case of `Cc1ccc(CCNC(=O)NCc2ccc3c(c2)CN([C@H]2CCCC(=O)NC2=O)C3=O)cc1Cl` [Compound 19, (S)-1-(3-chloro-4-methylphenethyl)-3-((2-(2,7-dioxoazepan-3-v)-1-oxoisoindolin-5-yl)methyl)urea], the inhibition at 0.1 µM turned out to be 37% in assay [1], 17% in assay [2] and 33% in assay [3]. Also, the fold induction at 0.1 µM in assay [4] is 1.2. Also, the viability at 1 µM in assay [5] (Homo sapiens, 72 h, 3 days) was 79%; in assay [6], 8.26%. The viability at 10 µM in assay [6] was 3.09%. The compound also had a GSPT1 protein level (% of DMSO control) at 1 µM in assay [7] of 26.8%.

For the compound `Cc1ccc(NC(=O)NCc2cccc3c2CN([C@H]2CCCC(=O)NC2=O)C3=O)cc1Cl` [Compound 17, (S)-1-(3-chloro-4-methylphenyl)-3-((2-(2,7-dioxoazepan-3-yl)-1-oxoisoindolin-4-yl)methyl)urea], the inhibition at 0.1 µM in assay [1] worked out at 19%; in assay [2], 0%; in assay [3], 18%. In assay [4], the fold induction at 0.1 µM was found to be 1.3. Moreover, the viability at 10 µM came out at 91% in assay [5] (Homo sapiens, 72 h, 3 days) and 34.9% in assay [6]. Also, in assay [6], the viability at 1 µM was 95.5%. This compound yielded a GSPT1 protein level (% of DMSO control) at 0.1 µM in assay [7] of 131%. The GSPT1 protein level (% of DMSO control) at 1 µM in assay [7] came out at 80.5%.

For `COc1ccc(CC(=O)NCc2ccc3c(c2)CN([C@H]2CCCC(=O)NC2=O)C3=O)cc1Cl` [Compound 13, (S)-2-(3-chloro-4-methoxyphenyl)-N-((2-(2,7-dioxoazepan-3-yl)-1-oxoisoindolin-5-yl)methyl)acetamide], the inhibition at 1 µM was determined as 77% in assay [1], 85% in assay [2] and 53% in assay [3]. Also, in assay [4], the fold induction at 1 µM was found to be 2.6. Moreover, the viability at 10 µM in assay [5] (Homo sapiens, 72 h, 3 days) turned out to be 84%; in assay [6] it was 44.2%. Further, the viability at 1 µM in assay [6] was determined as 97.8%. The GSPT1 protein level (% of DMSO control) at 0.1 µM in assay [7] is 95.9%. This compound gave a GSPT1 protein level (% of DMSO control) at 1 µM in assay [7] of 46.2%.

For `Cc1ccc(CC(=O)NCc2ccc3c(c2)CN([C@H]2CCCC(=O)NC2=O)C3=O)cc1Cl` [Compound 7, (S)-2-(3-chloro-4-methylphenyl)-N-((2-(2,7-dioxoazepan-3-yl)-1-oxoisoindolin-5-yl)methyl)acetamide], the figures for the inhibition at 1 µM in assay [1], in assay [2] and in assay [3] were 56%, 73% and 59%, respectively. The fold induction at 1 µM in assay [4] worked out at 1. Further, the viability at 1 µM turned out to be 70% in assay [5] (Homo sapiens, 72 h, 3 days) and 44.1% in assay [6]. Also, the viability at 10 µM in assay [6] amounted to 7.25%. The same compound showed a GSPT1 protein level (% of DMSO control) at 0.1 µM in assay [7] of 83.3%. Further, the GSPT1 protein level (% of DMSO control) at 1 µM in assay [7] is 18.5%.

Consider `CCCNC(=O)NCc1ccc2c(c1)CN([C@H]1CCCC(=O)NC1=O)C2=O` [Compound 4, (S)-1-((2-(2,7-dioxoazepan-3-yl)-1-oxoisoindolin-5-yl)methyl)-3-propylurea], for which the inhibition at 1 µM came to 39% in assay [1], 33% in assay [2] and 44% in assay [3]. The fold induction at 1 µM in assay [4] came to 1.5. The viability at 1 µM in assay [6] came out at 103%. The viability at 10 µM in assay [6] came to 97.5%. This compound displayed a GSPT1 protein level (% of DMSO control) at 0.1 µM in assay [7] of 214%. The same compound registered a GSPT1 protein level (% of DMSO control) at 1 µM in assay [7] of 116%.

Consider `Cc1ccc(CNC(=O)NCc2ccc3c(c2)CN([C@H]2CCCC(=O)NC2=O)C3=O)cc1Cl` [Compound 18, (S)-1-(3-chloro-4-methylbenzyl)-3-((2-(2,7-dioxoazepan-3-yl)-1-oxoisoindolin-5-yl)methyl)urea], for which, in assay [1], 0.1 µM produced 53% inhibition. The compound further yielded an inhibition at 0.1 µM in assay [2] of 41%. In assay [3], this compound gave an inhibition at 0.1 µM of 48%. Further, the fold induction at 0.1 µM in assay [4] worked out at 1.5. For the same compound, the viability at 0.5 µM in assay [5] (Homo sapiens, 72 h, MOLM-13, 0.5 μM, 3 days) is 68%. In addition, in assay [6], the viability at 1 µM was determined as 14.2% and the viability at 10 µM worked out at 4.28%. Besides, in assay [7], the GSPT1 protein level (% of DMSO control) at 0.1 µM worked out at 69.7% and the GSPT1 protein level (% of DMSO control) at 1 µM amounted to 20.2%.

As for `Cc1c(Cl)cccc1NC(=O)NCc1ccc2c(c1)CN([C@H]1CCCC(=O)NC1=O)C2=O` [Compound 5, (S)-1-(3-chloro-2-methylphenyl)-3-((2-(2,7-dioxoazepan-3-yl)-1-oxoisoindolin-5-yl)methyl)urea], the inhibition at 1 µM in assay [1] is 90%. In assay [2], this compound returned an inhibition at 1 µM of 99%. Also, in assay [3], the inhibition at 1 µM is 92%. Besides, the fold induction at 1 µM in assay [4] is 1.3. Moreover, the viability at 0.6 µM in assay [5] (Homo sapiens, 72 h, MOLM-13, 0.6 μM, 3 days) turned out to be 50%. Also, in assay [6], the viability at 1 µM came out at 27.3% and the viability at 10 µM turned out to be 2.36%. In assay [7], this compound came in with a GSPT1 protein level (% of DMSO control) at 0.1 µM of 80.2% and a GSPT1 protein level (% of DMSO control) at 1 µM of 15.7%.

Regarding `Nc1cccc2c1C(=O)N(C1CCC(=O)NC1=O)C2=O` (centres unmarked) [pomalidomide, reference compound], in assay [1] (LPS-stimulated PBMCs, 10 μM (FIG. 2)), the “reduction of expression of IL-1-b” value is listed as “under 80%”. For the same compound, the “reduction of IL-6 levels” value in assay [2] (LPS-stimulated PBMCs, 10 μM (FIG. 3)) is reported as “under 60%”. Besides, the “reduction of expression of TNF-α” value in assay [3] (LPS-stimulated PBMCs, 10 μM (FIG. 4)) was roughly 30%. Besides, the “effect on cell viability” value in assay [5] (Molm-13 cells, 10 μM (FIG. 5)) is recorded as “no effect on cellular viability”.

Regarding `O=C1CCC[C@H](N2Cc3cc(CNC(=O)Nc4ccc(C(F)(F)F)c(Cl)c4)ccc3C2=O)C(=O)N1` [Compound 12, (S)-1-(3-chloro-4-(trifluoromethyl)phenyl)-3-((2-(2,7-dioxoazepan-3-yl)-1-oxoisoindolin-5-yl)methyl)urea], the inhibition at 1 µM worked out at 75% in assay [1], 90% in assay [2] and 59% in assay [3]. Further, in assay [4], the fold induction at 1 µM is 1.5. Besides, the viability at 10 µM in assay [5] (Homo sapiens, 72 h, 3 days) was determined as 11%. This compound also showed a GSPT1 protein level (% of DMSO control) at 1 µM in assay [7] of 18.6%.
